Results on one compound are retold here after patent publication US8263637B2, “Methods for treatment of multiple myeloma using cyclopropane carboxylic acid {2-[(is)-1-(3-ethoxy-4-methoxy-phenyl)-2-methanesulfonyl-ethyl]-3-oxo-2,3-dihydro-1 h-isoindol-4-yl}-amide” (Celgene Corporation, priority 2002, dated 2012).

Data set [1] can be described thus: Cardiovascular and respiratory function in anesthetized dogs. The class given is in vivo, Beagle dogs. On the procedure: The effects of 3-(3,4-dimethoxy-phenyl)-3-(1-oxo-1,3-dihydro-isoindol-2-yl)-propionamide on cardiovascular and respiratory function are investigated in anesthetized dogs. Two groups of Beagle dogs (2/sex/group) are used. One group receives three doses of vehicle only and the other receives three ascending doses of the compound (200, 400, and 800 mg/kg). In all cases, doses of the compound or vehicle are successively administered via infusion through the jugular vein separated by intervals of at least 30 minutes.
The cardiovascular and respiratory changes induced by 3-(3,4-diethoxy-phenyl)-3-(1-oxo-1,3-dihydro-isoindol-2-yl)-propionamide are minimal at all doses when compared to the vehicle control group.

The subject of the next data set is TNF-α production. The data set is described as follows: Inhibition of TNF-α production following LPS-stimulation of human PBMC and human whole blood. Type of data set: cell-based. The conditions noted are these: in vitro studies; relative to thalidomide. From the text: In a specific embodiment, the pharmacological properties of 3-(3,4-dimethoxy-phenyl)-3-(1-oxo-1,3-dihydro-isoindol-2-yl)-propionamide are characterized in in vitro studies. Studies examine the effects of the compound on the production of various cytokines. Inhibition of TNF-α production following LPS-stimulation of human PBMC and human whole blood by the compound is investigated in vitro. […] The pharmacological effects of 3-(3,4-dimethoxy-phenyl)-3-(1-oxo-1,3-dihydro-isoindol-2-yl)-propionamide may derive from its action as an inhibitor of the generation of inflammatory cytokines.

As to `COc1ccc(C(CC(N)=O)N2Cc3ccccc3C2=O)cc1OC` (stereo not drawn) [3-(3,4-dimethoxy-phenyl)-3-(1-oxo-1,3-dihydro-isoindol-2-yl)-propionamide], the “cardiovascular and respiratory changes compared to the vehicle control group” value in data set [1] (all doses (200, 400, and 800 mg/kg), infusion through the jugular vein) is listed as “minimal”. In addition, the “deviations in femoral blood flow, respiratory parameters, and Qtc interval” value in data set [1] (common to both the control and treated groups) is on record as “not considered treatment-related”. For the same compound, the “arterial blood pressure effect at higher doses” value in data set [1] (higher doses) is listed as “not seen”. The “duration of the arterial blood pressure effect” value in data set [1] (low dose) is recorded as “approximately 15 minutes”. Moreover, the “arterial blood pressure, difference between vehicle and treatment groups” value in data set [1] (low dose, statistically significant) is “small increase”. Moreover, the “pharmacological activity profile, times more potent than thalidomide” value in the data set with TNF-α production is on record as “five to fifty”.
